{"source": "patent US10259774B1", "about": "“Antimicrobials for preservation of home and personal care products” (GALAXY SURFACTANTS LTD., priority 2018, dated 2019)", "key": {"[1]": {"details": "comparison surfactants, conditions not given; cited from earlier work"}, "[2]": {"tested_on": "Escherichia coli ATCC 8739, Pseudomonas aeruginosa ATCC 15442, Staphylococcus aureus ATCC 6538, Propionibacterium acnes MTCC 1951, Candida albicans ATCC 10231 …", "experiment": "Preservative challenge test according to PCPC protocol", "format": "cell-based, bacteria, yeast and mold", "excerpt": "The preservative efficacy of the compounds of Formula I has been tested in surfactant formulations typically containing anionic surfactant with pH ranging for 4 to 8.0. The personal care and home care formulations (body wash, shampoo, skin-cream and dish wash) are preserved with 1.0 to 2.0% of compounds of Formula I. The details of formulations are given in Examples 4, 5, 6, 7, 8, 9, and 10. The above formulations pass the challenge test performed according to PCPC protocol using Escherichia coli ATCC 8739, Pseudomonas aeruginosa ATCC 15442 (Gram −ve bacteria), Staphylococcus aureus ATCC 6538, Propionibacterium acnes MTCC 1951, (Gram +ve) Candida albicans ATCC 10231, Malassezia furfur MTCC 1374 (yeast) and Aspergillus niger ATCC 16404 (mold) The formulations pass the challenge test criteria for both bacteria and fungi.\nThe above formulations (Example 4, 5, 6, 7, 8, 9 & 10) pass the challenge test performed according to PCPC protocol using Escherichia coli ATCC 8739, Pseudomonas aeruginosa ATCC 15442 (Gram −ve bacteria), Staphylococcus aureus ATCC 6538, Propionibacterium acnes MTCC 1951, (Gram +ve) Candida albicans ATCC 10231, Malassezia furfur MTCC 1374 (yeast) and Aspergillus niger ATCC 16404 (mold)."}}}
{"molecule": "CCCCCCCCCCCC[N+](CCC(=O)OC)(CCC(=O)OC)Cc1ccccc1.[Cl-]", "note": "[N-Lauryl, N,N-Dimethyldipropionate Benzyl Ammonium Chloride]", "values": [{"measurement": "MIC (%)", "setting": "Pseudomonas sp", "result": 0.5, "unit": "%"}, {"measurement": "MIC (%)", "setting": "P acne", "result": 0.4, "unit": "%"}, {"measurement": "MIC (%)", "setting": "M furfur", "result": 0.5, "unit": "%"}, {"measurement": "MIC (%)", "setting": "S aureus", "result": 0.5, "unit": "%"}, {"measurement": "MIC (%)", "setting": "C. albicans", "result": 0.4, "unit": "%"}, {"measurement": "MIC (%)", "setting": "Aspergillus niger", "result": 0.2, "unit": "%"}, {"measurement": "MIC (%)", "setting": "E coli", "result": 0.3, "unit": "%"}]}
{"molecule": "CCCCCCCCCCCCOS(=O)(=O)[O-].[Na+]", "note": "[sodium lauryl sulphate]", "values": [{"measurement": "CMC", "setting": "[1]", "result": 8.0, "unit": "mmol/L"}]}
{"molecule": "cocoamidopropyl betaine", "values": [{"measurement": "CMC", "setting": "[1]", "result": 0.05, "unit": "mmol/L"}]}
{"molecule": "N-Alkyl, N,N-dimethyl, N-benzyl ammonium chloride [Benzalkonium chloride]", "values": [{"measurement": "challenge test", "setting": "[2]; 10% SLES preserved with 1% of the substance, PCPC protocol", "result": "failed to pass"}, {"measurement": "antimicrobial activity in the presence of anionic surfactant", "setting": "[2]; used at 10000 ppm", "result": "does not exhibit any antimicrobial activity"}]}
